Test results from ChEMBL document CHEMBL2074379, “Possible involvement of organic anion transporter 2 on the interaction of theophylline with erythromycin in the human liver” (Drug Metab Dispos, 2005).

Assays:
Assay type in all cases: functional, cell-based
Conditions in all cases: oocyte
[1] = target: T1, Solute carrier family 22 member 7 (Homo sapiens, UniProt Q9Y694); test: TP_TRANSPORTER: inhibition of theophylline uptake in OAT2-expressing oocytes
T1 sequence (Q9Y694 whole entry): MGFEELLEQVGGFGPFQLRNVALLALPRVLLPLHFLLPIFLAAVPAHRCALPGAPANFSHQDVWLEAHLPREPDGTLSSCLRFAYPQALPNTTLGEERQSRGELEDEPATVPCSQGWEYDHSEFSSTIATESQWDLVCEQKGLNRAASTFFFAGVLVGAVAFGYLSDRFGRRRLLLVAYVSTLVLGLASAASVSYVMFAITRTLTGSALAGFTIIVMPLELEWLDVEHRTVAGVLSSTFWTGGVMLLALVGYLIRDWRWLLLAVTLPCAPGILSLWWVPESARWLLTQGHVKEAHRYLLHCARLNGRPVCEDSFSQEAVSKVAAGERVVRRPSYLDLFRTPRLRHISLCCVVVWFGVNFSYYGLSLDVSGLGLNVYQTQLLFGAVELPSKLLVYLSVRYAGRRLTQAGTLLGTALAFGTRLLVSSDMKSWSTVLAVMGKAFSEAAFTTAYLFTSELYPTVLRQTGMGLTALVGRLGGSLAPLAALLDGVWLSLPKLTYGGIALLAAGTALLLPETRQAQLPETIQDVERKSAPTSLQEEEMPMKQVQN

[2] = target: T1, Solute carrier family 22 member 7; test: TP_TRANSPORTER: uptake in OAT2-expressing oocytes
[3] = target: T1, Solute carrier family 22 member 7; test: TP_TRANSPORTER: inhibition of erythromycin uptake in OAT2-expressing oocytes

SMILES | Activity [1] | Activity [2] | Activity [3]
CC[C@H]1OC(=O)[C@H](C)[C@@H](O[C@H]2C[C@@](C)(OC)[C@@H](O)[C@H](C)O2)[C@H](C)[C@@H](O[C@@H]2O[C@H](C)C[C@H](N(C)C)[C@H]2O)[C@](C)(OC)C[C@@H](C)C(=O)[C@H](C)[C@@H](O)[C@]1(C)O [CLARITHROMYCIN] | inhibitor [] |  | 
Cn1c(=O)c2[nH]cnc2n(C)c1=O.O [THEOPHYLLINE] |  | substrate [] | inhibitor []
CC[C@H]1OC(=O)[C@H](C)[C@@H](O[C@H]2C[C@@](C)(OC)[C@@H](O)[C@H](C)O2)[C@H](C)[C@@H](O[C@@H]2O[C@H](C)C[C@H](N(C)C)[C@H]2O)[C@](C)(O)C[C@@H](C)C(=O)[C@H](C)[C@@H](O)[C@]1(C)O [ERYTHROMYCIN] | inhibitor [] | substrate [] | 
